TGI data for one compound are collected here from PubChem BioAssay (NCI).

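Interpolation was linear, between the two tested concentrations surrounding the appropriate level; five concentrations were tested over 48 hours in 96-well plates. At the TGI there is no net growth.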 A value given as a limit tells only on which side of the number the result lay.

What all share (assay): NCI anticancer screen, dose series, 48 h
Experiment [1] deals with PC-3 prostate.
Experiment [2] relates to HS 578T breast.
The test system of experiment [3] is OVCAR-8 ovarian.
Experiment [4] concerns SF-539 CNS.
In experiment [5] the test system is SN12C renal.
Experiment [6] deals with SNB-75 CNS.
For experiment [7], the system named is CCRF-CEM leukemia.
For experiment [8], the system named is HL-60(TB) leukemia.
Experiment [9] relates to SF-295 CNS.
The subject of experiment [10] is HT29 colon.

Consider `COc1cccc2c1C(=O)OC2c1cccc2ccccc12` (stereo not given), for which the TGI in experiment [1] is greater than 100 µM; in experiment [2] it was greater than 100 µM; in experiment [3] it was greater than 100 µM; in [4], greater than 100 µM; in [5], greater than 100 µM; in experiment [6], 68.4 µM. Further, the TGI in experiment [7], in [8], in experiment [9] and in [10] was greater than 100 µM in each case.
